This is an account of results in PubChem BioAssay AID248 (DTP/NCI, 2004).

“And” between values parts separate entries of the source, which are not always exact repeats. Equal entries are not always repeated. Inconclusive results and toxic doses are left out.

For the assay, the system named is L1210 leukemia ip in BDF1 mice, survival T/C. The assay can be described thus: NCI In Vivo Anticancer Drug Screen. Data for tumor model L1210 Leukemia (intraperitoneal) in B6D2F1 (BDF1) mice. Conditions: endpoint: mean survival time, higher = longer survival. The method in brief: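 Antitumor effect is assessed in tumor-bearing animals. Survival in the compound arm is compared with a vehicle-dosed control arm and expressed as their quotient.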

The mark [1] stands for this setting: dose: 100.0 mg/kg/injection, schedule: Q01DX009 (ip), vehicle: saline with Tween-80.
The mark [2] stands for this setting: dose: 100.0 mg/kg/injection, schedule: Q04DX003 (ip), vehicle: saline with Tween-80.
The mark [3] stands for this setting: dose: 200.0 mg/kg/injection, schedule: Q01DX009 (ip), vehicle: saline with Tween-80.
Setting [4] is: dose: 200.0 mg/kg/injection, schedule: Q04DX003 (ip), vehicle: saline with Tween-80.
Setting [5] is: dose: 400.0 mg/kg/injection, schedule: Q01DX009 (ip), vehicle: saline with Tween-80.
[6] abbreviates: dose: 400.0 mg/kg/injection, schedule: Q04DX003 (ip), vehicle: saline with Tween-80.
Setting [7] is: dose: 25.0 mg/kg/injection, schedule: Q01DX009 (ip), vehicle: Klucel (hydroxypropylcellulose) (HPC).
Setting [8] is: dose: 50.0 mg/kg/injection, schedule: Q01DX009 (ip), vehicle: Klucel (hydroxypropylcellulose) (HPC).
The mark [9] stands for this setting: dose: 50.0 mg/kg/injection, schedule: Q04DX003 (ip), vehicle: Klucel (hydroxypropylcellulose) (HPC).
[10] abbreviates: dose: 100.0 mg/kg/injection, schedule: Q04DX003 (ip), vehicle: Klucel (hydroxypropylcellulose) (HPC).
The mark [11] stands for this setting: dose: 100.0 mg/kg/injection, schedule: Q04DX003 (ip), vehicle: saline.
[12] abbreviates: dose: 200.0 mg/kg/injection, schedule: Q04DX003 (ip), vehicle: saline.
Setting [13] is: dose: 400.0 mg/kg/injection, schedule: Q04DX003 (ip), vehicle: saline.

Regarding `NS(=O)Oc1ccc(Nc2ncnc3nc[nH]c23)cc1` (centres undefined), the T/C by setting is: under setting [1], 97 % of control; under setting [2], 98 % of control; under setting [3], 95 % of control; under setting [4], 102 % of control; under setting [5], 104 % of control; under setting [6], 98 % of control.

For the molecule `Cc1cc(C)c(NC(=S)NC(=O)/C=C/c2ccccc2)c(C)c1`, the T/C is 100 % of control (dose: 100.0 mg/kg/injection, schedule: Q01DX001 (ip), vehicle: saline with Tween-80); 97 % of control and 89 % of control under setting [1]; 101 % of control (dose: 100.0 mg/kg/injection, schedule: Q04DX002 (ip), vehicle: saline with Tween-80); 92 % of control under setting [2]; 92 % of control (dose: 200.0 mg/kg/injection, schedule: Q01DX001 (ip), vehicle: saline with Tween-80); 101 % of control and 107 % of control under setting [3]. The T/C (dose: 200.0 mg/kg/injection, schedule: Q04DX002 (ip), vehicle: saline with Tween-80) was 104 % of control; the T/C under setting [4] was 92 % of control; the T/C (dose: 400.0 mg/kg/injection, schedule: Q01DX001 (ip), vehicle: saline with Tween-80) was 97 % of control; the T/C under setting [5] was 92 % of control and 96 % of control; the T/C (dose: 400.0 mg/kg/injection, schedule: Q04DX002 (ip), vehicle: saline with Tween-80) is 87 % of control; the T/C under setting [6] is 91 % of control.

Turning to `O=[N+]([O-])c1ccccc1N=Nc1c(O)[nH]c2ccc(S(=O)(=O)O)cc12`, the T/C runs as follows: (dose: 100.0 mg/kg/injection, schedule: Q01DX001 (ip), vehicle: acetone) 94 % of control; (dose: 200.0 mg/kg/injection, schedule: Q01DX001 (ip), vehicle: acetone) 92 % of control; (dose: 400.0 mg/kg/injection, schedule: Q01DX001 (ip), vehicle: acetone) 100 % of control.

As to `COc1cc(/C=C/C(N)=O)cc(OC)c1OC`, the T/C was 104 % of control under setting [7]; 114 % of control under setting [8]; 101 % of control (dose: 100.0 mg/kg/injection, schedule: Q01DX009 (ip), vehicle: Klucel (hydroxypropylcellulose) (HPC)); 104 % of control (dose: 200.0 mg/kg/injection, schedule: Q01DX009 (ip), vehicle: Klucel (hydroxypropylcellulose) (HPC)); 102 % of control (dose: 400.0 mg/kg/injection, schedule: Q01DX009 (ip), vehicle: Klucel (hydroxypropylcellulose) (HPC)).

Take `COc1ccc(NC(=O)N(CCCl)N=O)cc1OC`: the T/C was 115 % of control (dose: 0.5 mg/kg/injection, schedule: Q01DX009 (ip), vehicle: Klucel (hydroxypropylcellulose) (HPC)); 123 % of control (dose: 1.0 mg/kg/injection, schedule: Q01DX009 (ip), vehicle: Klucel (hydroxypropylcellulose) (HPC)); 115 % of control (dose: 1.2 mg/kg/injection, schedule: Q01DX009 (ip), vehicle: Klucel (hydroxypropylcellulose) (HPC)); 113 % of control (dose: 1.8 mg/kg/injection, schedule: Q01DX009 (ip), vehicle: Klucel (hydroxypropylcellulose) (HPC)); 118 % of control (dose: 2.5 mg/kg/injection, schedule: Q01DX001 (ip), vehicle: carboxymethylcellulose (CMC)); 151 % of control and 152 % of control (2×) (dose: 4.0 mg/kg/injection, schedule: Q01DX009 (ip), vehicle: Klucel (hydroxypropylcellulose) (HPC)). For the same molecule, the T/C was 118 % of control (dose: 5.0 mg/kg/injection, schedule: Q01DX001 (ip), vehicle: carboxymethylcellulose (CMC)); 165 % of control (dose: 6.0 mg/kg/injection, schedule: Q01DX009 (ip), vehicle: Klucel (hydroxypropylcellulose) (HPC)); 206 % of control (dose: 6.6 mg/kg/injection, schedule: Q01DX009 (ip), vehicle: carboxymethylcellulose (CMC)); 220 % of control (dose: 9.0 mg/kg/injection, schedule: Q01DX009 (ip), vehicle: Klucel (hydroxypropylcellulose) (HPC)); 123 % of control (dose: 10.0 mg/kg/injection, schedule: Q01DX009 (ip), vehicle: carboxymethylcellulose (CMC)); 167 % of control and 190 % of control (dose: 13.0 mg/kg/injection, schedule: Q01DX009 (ip), vehicle: Klucel (hydroxypropylcellulose) (HPC)). Besides, the T/C reads like this: (dose: 15.0 mg/kg/injection, schedule: Q01DX001 (ip), vehicle: carboxymethylcellulose (CMC)) 168 % of control; (dose: 15.0 mg/kg/injection, schedule: Q01DX009 (ip), vehicle: carboxymethylcellulose (CMC)) 106 % of control; (dose: 20.0 mg/kg/injection, schedule: Q01DX001 (ip), vehicle: other) 227 % of control; (dose: 20.0 mg/kg/injection, schedule: Q01DX009 (ip), vehicle: Klucel (hydroxypropylcellulose) (HPC)) 92 % of control; (dose: 30.0 mg/kg/injection, schedule: Q01DX001 (ip), vehicle: carboxymethylcellulose (CMC)) 247 % of control; (dose: 30.0 mg/kg/injection, schedule: Q01DX001 (ip), vehicle: other) 206 % of control. The T/C (dose: 45.0 mg/kg/injection, schedule: Q01DX001 (ip), vehicle: other) was 242 % of control and the T/C (dose: 60.0 mg/kg/injection, schedule: Q01DX001 (ip), vehicle: carboxymethylcellulose (CMC)) is 193 % of control.

Take `O=C(Cn1ccc(=O)[nH]c1=O)Nc1ccc(O)c(C(=O)O)c1`: the T/C by setting is: under setting [9], 100 % of control; under setting [10], 107 % of control; (dose: 200.0 mg/kg/injection, schedule: Q04DX003 (ip), vehicle: Klucel (hydroxypropylcellulose) (HPC)) 100 % of control.

As to `CCCCCCCCCCCCCCCCOc1ccc(C(C)(C)C)cc1`, the T/C by setting is: (dose: 100.0 mg/kg/injection, schedule: Q01DX001 (ip), vehicle: Klucel (hydroxypropylcellulose) (HPC)) 93 % of control; (dose: 200.0 mg/kg/injection, schedule: Q01DX001 (ip), vehicle: Klucel (hydroxypropylcellulose) (HPC)) 93 % of control; (dose: 400.0 mg/kg/injection, schedule: Q01DX001 (ip), vehicle: Klucel (hydroxypropylcellulose) (HPC)) 93 % of control.

On to `O=C(O)CC/C(=N/OCc1cc2c(cc1Cl)OCO2)C(=O)O`, for which the T/C was 108 % of control (dose: 100.0 mg/kg/injection, schedule: Q04DX003 (ip), vehicle: saline sonified); 93 % of control (dose: 200.0 mg/kg/injection, schedule: Q04DX003 (ip), vehicle: saline sonified); 91 % of control (dose: 400.0 mg/kg/injection, schedule: Q04DX003 (ip), vehicle: saline sonified).

Regarding `CC12CCCCC1(O)CC(=O)CC2` (centres undefined), the T/C by setting is: (dose: 100.0 mg/kg/injection, schedule: Q04DX002 (ip), vehicle: Klucel (hydroxypropylcellulose) (HPC)) 101 % of control; (dose: 200.0 mg/kg/injection, schedule: Q04DX002 (ip), vehicle: Klucel (hydroxypropylcellulose) (HPC)) 99 % of control; (dose: 400.0 mg/kg/injection, schedule: Q04DX002 (ip), vehicle: Klucel (hydroxypropylcellulose) (HPC)) 108 % of control.

As for `CCOC(=O)/C(C)=N/Nc1nn[nH]n1`, the T/C under setting [11] is 99 % of control, the T/C under setting [12] was 99 % of control and the T/C under setting [13] was 86 % of control.

For the molecule `O=c1[nH]cc(/C=N\Nc2ccccc2)c(=O)[nH]1`, the T/C by setting is: (dose: 50.0 mg/kg/injection, schedule: Q01DX001 (ip), vehicle: saline) 97 % of control; (dose: 100.0 mg/kg/injection, schedule: Q01DX001 (ip), vehicle: saline) 101 % of control; (dose: 200.0 mg/kg/injection, schedule: Q01DX001 (ip), vehicle: saline) 101 % of control; (dose: 400.0 mg/kg/injection, schedule: Q01DX001 (ip), vehicle: saline) 101 % of control.

With `O=C1OCCN1CCO`, the T/C is, setting by setting: under setting [11], 97 % of control; under setting [12], 102 % of control; under setting [13], 108 % of control.

Regarding `NNC(=O)c1cccs1`, the T/C was 100 % of control under setting [7]; 95 % of control (dose: 25.0 mg/kg/injection, schedule: Q04DX003 (ip), vehicle: Klucel (hydroxypropylcellulose) (HPC)); 100 % of control (dose: 50.0 mg/kg/injection, schedule: Q01DX001 (ip), vehicle: carboxymethylcellulose (CMC)); 103 % of control under setting [8]; 95 % of control under setting [9]; 101 % of control under setting [10].
